Several values for one entry are separate records, joined by “and”; a condition that tells them apart may be missing. Identical values can stand only once. Inconclusive results and toxic doses are left out. Cut-off read from the data, not from the text of the source: active = T/C of 150% or more; inactive = T/C below 125%.
Tested on: L1210 leukemia ip in BDF1 mice, survival T/C
Assay: NCI In Vivo Anticancer Drug Screen. Data for tumor model L1210 Leukemia (intraperitoneal) in B6D2F1 (BDF1) mice
Conditions: endpoint: mean survival time, higher = longer survival
Outline: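 Tumor was transplanted into mice, which were then dosed with test compound or vehicle alone. Survival was recorded for each group, and the treated figure was expressed relative to the control figure.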

[1] = dose: 100.0 mg/kg/injection, schedule: Q04DX002 (ip), vehicle: Klucel (hydroxypropylcellulose) (HPC)
[2] = dose: 200.0 mg/kg/injection, schedule: Q04DX002 (ip), vehicle: Klucel (hydroxypropylcellulose) (HPC)
[3] = dose: 400.0 mg/kg/injection, schedule: Q04DX002 (ip), vehicle: Klucel (hydroxypropylcellulose) (HPC)
[4] = dose: 100.0 mg/kg/injection, schedule: Q04DX002 (ip), vehicle: saline
[5] = dose: 200.0 mg/kg/injection, schedule: Q04DX002 (ip), vehicle: saline
[6] = dose: 400.0 mg/kg/injection, schedule: Q04DX002 (ip), vehicle: saline
[7] = dose: 100.0 mg/kg/injection, schedule: Q01DX009 (ip), vehicle: Klucel (hydroxypropylcellulose) (HPC)
[8] = dose: 200.0 mg/kg/injection, schedule: Q01DX009 (ip), vehicle: Klucel (hydroxypropylcellulose) (HPC)
[9] = dose: 400.0 mg/kg/injection, schedule: Q01DX009 (ip), vehicle: Klucel (hydroxypropylcellulose) (HPC)
[10] = dose: 50.0 mg/kg/injection, schedule: Q01DX001 (ip), vehicle: saline with Tween-80
[11] = dose: 100.0 mg/kg/injection, schedule: Q01DX001 (ip), vehicle: saline with Tween-80
[12] = dose: 200.0 mg/kg/injection, schedule: Q01DX001 (ip), vehicle: saline with Tween-80
[13] = dose: 400.0 mg/kg/injection, schedule: Q01DX001 (ip), vehicle: saline with Tween-80
[14] = dose: 50.0 mg/kg/injection, schedule: Q01DX009 (ip), vehicle: Klucel (hydroxypropylcellulose) (HPC)
[15] = dose: 100.0 mg/kg/injection, schedule: Q01DX001 (ip), vehicle: saline
[16] = dose: 200.0 mg/kg/injection, schedule: Q01DX001 (ip), vehicle: saline

Measured: T/C

O=C(NCCN1C(=O)C2C3CCC(O3)C2C1=O)Nc1ccc([N+](=O)[O-])cc1[N+](=O)[O-] (stereo not given)
inactive: [1] 108 % of control | [2] 101 % of control | [3] 108 % of control

Cc1cccc(NC(=O)Cc2ccccc2)c1C
inactive: [4] 99 % of control | [5] 105 % of control | [6] 101 % of control

CC(=O)Nc1ccnc(=O)[nH]1
inactive: dose: 75.0 mg/kg/injection, schedule: Q01DX001 (ip), vehicle: saline 106 % of control | dose: 150.0 mg/kg/injection, schedule: Q01DX001 (ip), vehicle: saline 95 % of control

CCOC(=O)c1cc(Cl)nc2ccc3ccccc3c12
inactive: [7] 101 % of control | [8] 97 % of control | [9] 96 % of control

CCS(=O)(=O)/C=C/c1cccnc1
inactive: [4] 96 % of control | [5] 100 % of control | [6] 107 % of control

CC1CC=C(/C=N/NC(N)=O)C(C)O1 (stereo not given)
inactive: dose: 50.0 mg/kg/injection, schedule: Q01DX009 (ip), vehicle: saline with Tween-80 94 % of control | dose: 100.0 mg/kg/injection, schedule: Q01DX009 (ip), vehicle: saline with Tween-80 88 % of control | dose: 200.0 mg/kg/injection, schedule: Q01DX009 (ip), vehicle: saline with Tween-80 94 % of control

S=C(Nc1cc2c3c(c1)CCCN3CCC2)Nc1cc2c3c(c1)CCCN3CCC2
inactive: [10] 107 % of control | [11] 94 % of control | [12] 97 % of control | [13] 89 % of control

COc1cc(OC)c(OC)cc1/C=C/c1cc[n+](C)c2ccccc12
inactive: dose: 25.0 mg/kg/injection, schedule: Q04DX002 (ip), vehicle: Klucel (hydroxypropylcellulose) (HPC) 95 % of control | dose: 50.0 mg/kg/injection, schedule: Q04DX002 (ip), vehicle: Klucel (hydroxypropylcellulose) (HPC) 101 % of control | [1] 109 % of control and 111 % of control

COC(=O)c1cc(=O)c2cccc(C(=O)O)c2[nH]1
inactive: [14] 109 % of control | [7] 98 % of control | [8] 102 % of control

O=C(O)c1ccccc1C(=O)OC1=CS(=O)(=O)CC1
inactive: [10] 97 % of control | [11] 101 % of control and 104 % of control | [12] 95 % of control and 123 % of control | [13] 104 % of control and 105 % of control

CC(C)OC(=O)C(C)OC(=O)OCCOCCOC(=O)OC(C)C(=O)OC(C)C (stereo not given)
inactive: [15] 96 % of control | [16] 100 % of control | dose: 400.0 mg/kg/injection, schedule: Q01DX001 (ip), vehicle: saline 100 % of control

O=C(/C=C/c1ccccc1)Nc1cc([N+](=O)[O-])ccc1O
inactive: [14] 97 % of control | [7] 94 % of control and 87 % of control | [8] 94 % of control and 97 % of control | [9] 87 % of control

CN(C)Cc1c(C(O)(c2ccccc2)c2ccccc2)ccc2ccccc12
inactive: dose: 50.0 mg/kg/injection, schedule: Q01DX001 (ip), vehicle: carboxymethylcellulose (CMC) 90 % of control | dose: 100.0 mg/kg/injection, schedule: Q01DX001 (ip), vehicle: carboxymethylcellulose (CMC) 100 % of control | dose: 200.0 mg/kg/injection, schedule: Q01DX001 (ip), vehicle: carboxymethylcellulose (CMC) 96 % of control | dose: 400.0 mg/kg/injection, schedule: Q01DX001 (ip), vehicle: carboxymethylcellulose (CMC) 90 % of control

CC(=O)Nc1ccc(Cc2ccc(N)cc2)cc1
inactive: [15] 108 % of control | [16] 104 % of control

O=[N+]([O-])c1cccn2ncnc12
inactive: dose: 5.0 mg/kg/injection, schedule: Q01DX001 (ip), vehicle: acetone 104 % of control | dose: 10.0 mg/kg/injection, schedule: Q01DX001 (ip), vehicle: acetone 106 % of control | dose: 20.0 mg/kg/injection, schedule: Q01DX001 (ip), vehicle: acetone 96 % of control | dose: 40.0 mg/kg/injection, schedule: Q01DX001 (ip), vehicle: acetone 96 % of control | dose: 80.0 mg/kg/injection, schedule: Q01DX001 (ip), vehicle: acetone 107 % of control

COC1OC(CCl)C(OC(C)=O)C(OC(C)=O)C1OC(C)=O (stereo not given)
inactive: [1] 96 % of control and 106 % of control | [2] 104 % of control and 106 % of control | [3] 101 % of control and 103 % of control

CCC(C)CNCCO (stereo not given)
inactive: dose: 50.0 mg/kg/injection, schedule: Q01DX009 (ip), vehicle: saline 92 % of control | dose: 100.0 mg/kg/injection, schedule: Q01DX009 (ip), vehicle: saline 100 % of control | dose: 200.0 mg/kg/injection, schedule: Q01DX009 (ip), vehicle: saline 103 % of control

Source: PubChem BioAssay AID248 (DTP/NCI, 2004)
